Several values for one entry are separate records, joined by “and”; a condition that tells them apart may be missing. Identical values can stand only once. Inconclusive results and toxic doses are left out.

Experimental findings from PubChem BioAssay AID312 (DTP/NCI, 2004) are described below.

In the experiment the test system is BDF1 mice, C1498 leukemia ip, median survival T/C. The experiment in a line: NCI In Vivo Anticancer Drug Screen. Data for tumor model C1498 Myeloid Leukemia (intraperitoneal) in B6D2F1 (BDF1) mice. As to conditions: endpoint: median survival time, higher = longer survival. The protocol:
The antitumor activity of compounds was measured in mice bearing transplantable tumors. Survival or tumor size were measured and the results are expressed as the measurement made in the treated group (T) divided by the measurement made in the vehicle treated control group (C). The tumor model used in this assay is C1498 Myeloid Leukemia (intraperitoneal) in B6D2F1 (BDF1) mice

[1] abbreviates: dose: 125.0 mg/kg/injection, schedule: Q01DX010 (ip), vehicle: saline.
The mark [2] stands for this setting: dose: 250.0 mg/kg/injection, schedule: Q01DX010 (ip), vehicle: saline.
Where [3] appears, read: dose: 0.5 mg/kg/injection, schedule: Q01DX010 (ip), vehicle: saline.
Where [4] appears, read: dose: 2.0 mg/kg/injection, schedule: Q01DX010 (ip), vehicle: saline.
The mark [5] stands for this setting: dose: 4.0 mg/kg/injection, schedule: Q01DX010 (ip), vehicle: saline.
The mark [6] stands for this setting: dose: 25.0 mg/kg/injection, schedule: Q01DX010 (ip), vehicle: saline.
Setting [7] is: dose: 50.0 mg/kg/injection, schedule: Q01DX010 (ip), vehicle: saline.
Setting [8] is: dose: 100.0 mg/kg/injection, schedule: Q01DX010 (ip), vehicle: saline.
The mark [9] stands for this setting: dose: 200.0 mg/kg/injection, schedule: Q01DX010 (ip), vehicle: saline.
The mark [10] stands for this setting: dose: 400.0 mg/kg/injection, schedule: Q01DX010 (ip), vehicle: saline.
Where [11] appears, read: dose: 20.0 mg/kg/injection, schedule: Q01DX010 (ip), vehicle: saline.
The mark [12] stands for this setting: dose: 8.0 mg/kg/injection, schedule: Q01DX010 (ip), vehicle: saline.
The mark [13] stands for this setting: dose: 16.0 mg/kg/injection, schedule: Q01DX010 (ip), vehicle: saline.
Where [14] appears, read: dose: 32.0 mg/kg/injection, schedule: Q01DX010 (ip), vehicle: saline.
The mark [15] stands for this setting: dose: 5.0 mg/kg/injection, schedule: Q01DX010 (ip), vehicle: saline.
The mark [16] stands for this setting: dose: 10.0 mg/kg/injection, schedule: Q01DX010 (ip), vehicle: saline.
The mark [17] stands for this setting: dose: 31.3 mg/kg/injection, schedule: Q01DX010 (ip), vehicle: saline.
[18] abbreviates: dose: 62.5 mg/kg/injection, schedule: Q01DX010 (ip), vehicle: saline.

In the case of `Nc1nc2n[nH]nc2c(=O)[nH]1`, the T/C reads like this: (dose: 25.0 mg/kg/injection, schedule: Q01DX010 (ip), vehicle: alkali diluted with saline) 92 % of control and 96 % of control; (dose: 50.0 mg/kg/injection, schedule: Q01DX010 (ip), vehicle: alkali diluted with saline) 92 % of control and 96 % of control; (dose: 100.0 mg/kg/injection, schedule: Q01DX010 (ip), vehicle: alkali diluted with saline) 100 % of control and 89 % of control; (dose: 200.0 mg/kg/injection, schedule: Q01DX010 (ip), vehicle: alkali diluted with saline) 96 % of control.
Regarding `CCOC(N)=O`, the T/C by setting is: under setting [1], 95 % of control and 104 % of control; under setting [2], 95 % of control and 100 % of control; (dose: 500.0 mg/kg/injection, schedule: Q01DX010 (ip), vehicle: saline) 95 % of control and 109 % of control.
`Nc1nc(F)nc2c1ncn2C1OC(CO)C(O)C1O` (configuration not stated): the T/C is 100 % of control under setting [3]; 100 % of control and 105 % of control and 108 % of control (dose: 1.0 mg/kg/injection, schedule: Q01DX010 (ip), vehicle: saline); 100 % of control and 105 % of control and 108 % of control under setting [4]; 100 % of control and 108 % of control and 110 % of control under setting [5].
As to `C1CN1c1nc(N2CC2)nc(N2CC2)n1`, the T/C is 110 % of control (dose: 0.25 mg/kg/injection, schedule: Q01DX010 (ip), vehicle: saline) and 110 % of control under setting [3].
As to `Cc1cc2nc3c(=O)[nH]c(=O)nc-3n(CC(O)C(O)C(O)C(O)CO)c2cc1C` (configuration not stated), the T/C under setting [6] was 100 % of control; the T/C under setting [7] is 100 % of control; the T/C under setting [8] was 95 % of control; the T/C under setting [9] is 91 % of control; the T/C under setting [10] was 87 % of control.
On to `CC(=O)Nc1ccc2nc3ccc(NC(C)=O)cc3[n+](-c3ccccc3)c2c1`, for which the T/C was 107 % of control under setting [6], 96 % of control under setting [7], 88 % of control under setting [8] and 88 % of control under setting [9].
As to `C#CCN(C)Cc1ccccc1`, the T/C is 104 % of control under setting [6]; 100 % of control and 90 % of control under setting [7]; 90 % of control under setting [8]; 100 % of control and 90 % of control under setting [9].
For the compound `O=c1[nH]cc(F)c(=O)[nH]1`, the T/C runs as follows: under setting [11], 159 % of control; (dose: 25.0 mg/kg/injection, schedule: Q01DX009 (ip), vehicle: saline) 165 % of control; (dose: 30.0 mg/kg/injection, schedule: Q01DX009 (ip), vehicle: saline) 165 % of control.
For `O=C(Nc1ccc(C2=NCCN2)cc1)c1cccc(C(=O)Nc2ccc(C3=NCCN3)cc2)c1`, the T/C under setting [12] is 92 % of control and 96 % of control; the T/C under setting [13] was 96 % of control and 103 % of control; the T/C under setting [14] was 115 % of control and 117 % of control.
As to `C[C@@H]1C[C@@H]([C@H](O)CC2CC(=O)NC(=O)C2)C(=O)[C@@H](C)C1`, the T/C under setting [15] was 104 % of control and 109 % of control; the T/C under setting [16] is 114 % of control and 122 % of control; the T/C under setting [11] was 113 % of control and 123 % of control; the T/C (dose: 40.0 mg/kg/injection, schedule: Q01DX010 (ip), vehicle: saline) was 113 % of control.
As for `O[C@H](CN1CC1)[C@@H](O)CN1CC1`, the T/C by setting is: (dose: 62.5 micrograms/kg/injection, schedule: Q01DX010 (ip), vehicle: saline) 123 % of control; (dose: 500.0 micrograms/kg/injection, schedule: Q01DX010 (ip), vehicle: saline) 173 % of control.
With `COc1cc(C(=O)O)c2c(c1C)OC(=O)c1c(C)cc(O)c(C=O)c1O2`, the T/C is, setting by setting: under setting [12], 100 % of control; under setting [13], 108 % of control; under setting [14], 95 % of control.
As to `Nc1nc(=S)c2[nH]cnc2[nH]1`, the T/C (dose: 1.25 mg/kg/injection, schedule: Q01DX010 (ip), vehicle: other) is 104 % of control; the T/C (dose: 2.5 mg/kg/injection, schedule: Q01DX010 (ip), vehicle: other) was 123 % of control; the T/C (dose: 5.0 mg/kg/injection, schedule: Q01DX010 (ip), vehicle: other) is 104 % of control; the T/C (dose: 10.0 mg/kg/injection, schedule: Q01DX010 (ip), vehicle: other) was 109 % of control; the T/C (dose: 27.0 mg/kg/injection, schedule: Q01DX001 (ip), vehicle: alkali diluted with saline) was 97 % of control; the T/C (dose: 40.0 mg/kg/injection, schedule: Q01DX001 (ip), vehicle: alkali diluted with saline) is 101 % of control. For the same compound, the T/C (dose: 60.0 mg/kg/injection, schedule: Q01DX001 (ip), vehicle: alkali diluted with saline) was 112 % of control and the T/C (dose: 90.0 mg/kg/injection, schedule: Q01DX001 (ip), vehicle: alkali diluted with saline) was 150 % of control.
Regarding `O=C(O)CCCc1ccc(N(CCCl)CCCl)cc1`, the T/C (dose: 3.13 mg/kg/injection, schedule: Q01DX010 (ip), vehicle: saline) is 110 % of control and the T/C (dose: 6.25 mg/kg/injection, schedule: Q01DX010 (ip), vehicle: saline) is 120 % of control.
As to `Nc1nc(=S)c2ncn(C3OC(CO)C(O)C3O)c2[nH]1` (configuration not stated), the T/C reads like this: under setting [3], 113 % of control; under setting [4], 100 % of control and 111 % of control; under setting [5], 100 % of control and 90 % of control; under setting [12], 107 % of control.
Consider `CN(Cc1cnc2nc(N)nc(N)c2n1)c1ccc(C(=O)N[C@@H](CCC(=O)O)C(=O)O)cc1`, for which the T/C runs as follows: (dose: 1.5 mg/kg/injection, schedule: Q01DX009 (ip), vehicle: sodium bicarbonate) 110 % of control; (dose: 2.0 mg/kg/injection, schedule: Q01DX009 (ip), vehicle: sodium bicarbonate) 124 % of control.
Consider `CN(C)/N=N/c1nc[nH]c1C(N)=O`, for which the T/C was 108 % of control under setting [6]; 112 % of control under setting [7]; 158 % of control under setting [8]; 158 % of control and 159 % of control under setting [9]; 118 % of control under setting [10].
For `CCN(CCNc1ccc(C)c2sc3cc(Cl)ccc3c(=O)c12)CC(C)O` (configuration not stated), the T/C runs as follows: under setting [17], 86 % of control; under setting [18], 104 % of control and 90 % of control; under setting [1], 95 % of control and 86 % of control; under setting [2], 86 % of control.
For the compound `CCn1cnc2c(=S)nc[nH]c21`, the T/C by setting is: (dose: 15.6 mg/kg/injection, schedule: Q01DX010 (ip), vehicle: saline) 105 % of control; under setting [17], 100 % of control; under setting [18], 105 % of control; under setting [1], 105 % of control.
For `CC[n+]1c(-c2ccccc2)c2cc(N)ccc2c2ccc(N)cc21`, the T/C runs as follows: (dose: 1.25 mg/kg/injection, schedule: Q01DX010 (ip), vehicle: saline) 110 % of control; (dose: 2.5 mg/kg/injection, schedule: Q01DX010 (ip), vehicle: saline) 105 % of control and 109 % of control; under setting [15], 100 % of control and 110 % of control; under setting [16], 100 % of control and 110 % of control; under setting [11], 100 % of control.
In the case of `Nc1nc(N)c2nc(CNc3ccc(C(=O)NC(CCC(=O)O)C(=O)O)cc3)cnc2n1` (configuration not stated), the T/C runs as follows: (dose: 0.05 mg/kg/injection, schedule: Q01DX010 (ip), vehicle: other) 100 % of control and 103 % of control; (dose: 0.1 mg/kg/injection, schedule: Q01DX010 (ip), vehicle: other) 92 % of control and 100 % of control; (dose: 0.2 mg/kg/injection, schedule: Q01DX010 (ip), vehicle: other) 100 % of control; (dose: 0.4 mg/kg/injection, schedule: Q01DX010 (ip), vehicle: other) 92 % of control.
Take `O=C(Nc1ccc(NC2=NCCN2)cc1)c1ccc(C(=O)Nc2ccc(NC3=NCCN3)cc2)cc1`: the T/C under setting [4] was 113 % of control and 123 % of control; the T/C under setting [12] was 172 % of control and 190 % of control; the T/C under setting [13] is 109 % of control and 114 % of control.
`CCCCCCCCCCCCCCCC(=O)OCC1OC(n2ccc(N)nc2=O)C(O)C1O` (configuration not stated): the T/C is 153 % of control and 155 % of control (dose: 125.0 mg/kg/injection, schedule: Q01DX001 (ip), vehicle: saline with Tween-80); 151 % of control and 194 % of control (dose: 150.0 mg/kg/injection, schedule: Q01DX001 (ip), vehicle: saline with Tween-80).
`CC[C@]1(O)C[C@H]2CN(CCc3c([nH]c4ccccc34)[C@@](C(=O)OC)(c3cc4c(cc3OC)N(C=O)[C@H]3[C@@](O)(C(=O)OC)[C@H](OC(C)=O)[C@]5(CC)C=CCN6CC[C@]43[C@@H]65)C2)C1`: the T/C is 112 % of control (dose: 1.0 mg/kg/injection, schedule: Q04DX003 (ip), vehicle: saline); 115 % of control (dose: 1.5 mg/kg/injection, schedule: Q04DX003 (ip), vehicle: saline); 118 % of control (dose: 2.0 mg/kg/injection, schedule: Q04DX003 (ip), vehicle: saline).
